Results taken from US9475759B2, “Tigecycline crystalline hydrate and preparation method therefor and use thereof” (priority 2011, dated 2016).

Assay: Test for hygroscopicity (hygroscopic weight gain)
Assay type: physicochemical
Details: 25° C., relative humidity about 70%, about 5 g sample, sampling time 12 hours
Method: The tigecycline crystalline hydrates according to the invention can be stable for storage. A hygroscopicity test is conducted directed to a tigecycline hydrate sample and a tigecycline anhydride sample: about 5 g of the tigecycline anhydride and 5 g of the hydrate of the invention are taken, and they are placed in a dry and weight-constant surface vessel and precisely weighted. […] On the conditions of RH 75% and 30° C., the tigecycline crystalline hydrate is sealed in a vial for conducting a six-month acceleration stability test. According to the testing conditions of HPLC process of the tigecycline in relevant literatures: C18 (250 mm×4.6 mm, 5 μm) acetonitrile:phosphate buffer (1.29 g of citric acid and 2.76 g of anhydrous disodium hydrogen phosphate are dissolved in water and diluted to 1000 ml) (80:20) as the mobile phase; detection wavelength is 248 nm; the column temperature is room temperature; and the flowing rate is 1 ml/min. Under the conditions, the tigecycline contents and related substances are determined.
The tigecycline hydrates of the present invention may be stable for storage. Samples of tigecycline hydrates and anhydrides and amorphous tigecycline are used to conduct the test for hygroscopicity: respectively, about 5 g tigecycline anhydrides (obtained by drying tigecycline.0.5H2O hydrate prepared according to Example 1), about 5 g amorphous tigecycline (prepared by referring to the process as described in the reference document CN101367747A) and about 5 g the hydrates of the present invention are placed in a dry and constant weight watch glass, and the system is precisely weighed.

Structure (SMILES) | As compared to the sample time of 0 h, weight gains %
CN(C)c1cc(NC(=O)CNC(C)(C)C)c(O)c2c1C[C@H]1C[C@H]3[C@H](N(C)C)C(O)=C(C(N)=O)C(=O)[C@@]3(O)C(O)=C1C2=O [Amorphous tigecyline, tigecycline] | 1.3%
CN(C)c1cc(NC(=O)CNC(C)(C)C)c(O)c2c1C[C@H]1C[C@H]3[C@H](N(C)C)C(O)=C(C(N)=O)C(=O)[C@@]3(O)C(O)=C1C2=O [Tigecycline anhydride] | 1.4%
CN(C)c1cc(NC(=O)CNC(C)(C)C)c(O)c2c1C[C@H]1C[C@H]3[C@H](N(C)C)C(O)=C(C(N)=O)C(=O)[C@@]3(O)C(O)=C1C2=O.CN(C)c1cc(NC(=O)CNC(C)(C)C)c(O)c2c1C[C@H]1C[C@H]3[C@H](N(C)C)C(O)=C(C(N)=O)C(=O)[C@@]3(O)C(O)=C1C2=O.O [Tigecycline•0.5 H2O hydrate, Tigecycline.0.5H2O Hydrate] | 0.2%
CN(C)c1cc(NC(=O)CNC(C)(C)C)c(O)c2c1CC1CC3C(N(C)C)C(O)=C(C(N)=O)C(=O)C3(O)C(O)=C1C2=O.O.O (stereo not shown) [Tigecycline•2 H2O hydrate, Tigecycline.2H2O Hydrate] | 0.1%
